How the values were obtained:
Type in all cases: cell-based
E. coli DH5α = test: Antibacterial activity: MIC and growth curve against E. coli DH5α in 96-well plate; settings: minimal inhibitory concentration against E. coli DH5α; 96-well plate, 5×10^5 CFU/mL, 37° C., judged after 8 h
In short: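 Log-phase bacteria (OD600 ~0.5) resuspended in LB at 5×10^5 CFU/mL, exposed to recombinant protein at 50, 25, 12.5 μg/mL final in triplicate, 37 °C shaking at 175 rpm. OD600 read every 30 min; MIC is lowest concentration showing no growth.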

E. coli BL21 = test: MIC against Gram-negative bacteria: E. coli BL21
In short: (§1)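 Growth inhibition by human EGF domain proteins was scored in LB liquid culture seeded at 5×10^5 CFU/mL. Protein was applied as a two-fold dilution series in triplicate, with shaking incubation at 37° C; MIC is the lowest concentration giving no growth.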

Pseudomonas aeruginosa = test: MIC against Gram-negative bacteria: Pseudomonas aeruginosa
In short: as §1

Klebsiella pneumonia = test: MIC against Gram-negative bacteria: Klebsiella pneumonia
In short: as §1

Enterobacter cloacae = test: MIC against Gram-negative bacteria: Enterobacter cloacae
In short: as §1

Aeromonas hydrophila = test: MIC against Gram-negative bacteria: Aeromonas hydrophila
In short: as §1

Citrobacter diversus = test: MIC against Gram-negative bacteria: Citrobacter diversus
In short: as §1

Moraxella catarrhalis = test: MIC against Gram-negative bacteria: Moraxella catarrhalis
In short: as §1

Proteus mirabilis = test: MIC against Gram-negative bacteria: Proteus mirabilis
In short: as §1

Proteus vulgaris = test: MIC against Gram-negative bacteria: Proteus vulgaris
In short: as §1

Serratia marcescens = test: MIC against Gram-negative bacteria: Serratia marcescens
In short: as §1

[1] = E. coli BL21, 10 h cultivation at 37° C., 5×10^5 CFU/mL
[2] = P. aeruginosa, 10 h cultivation at 37° C., 5×10^5 CFU/mL
[3] = K. pneumonia, 10 h cultivation at 37° C., 5×10^5 CFU/mL
[4] = E. cloacae, 10 h cultivation at 37° C., 5×10^5 CFU/mL
[5] = A. hydrophila, 10 h cultivation at 37° C., 5×10^5 CFU/mL
[6] = C. diversus, 10 h cultivation at 37° C., 5×10^5 CFU/mL
[7] = M. catarrhalis, 10 h cultivation at 37° C., 5×10^5 CFU/mL
[8] = P. mirabilis, 10 h cultivation at 37° C., 5×10^5 CFU/mL
[9] = P. vulgaris, 10 h cultivation at 37° C., 5×10^5 CFU/mL
[10] = S. marcescens, 10 h cultivation at 37° C., 5×10^5 CFU/mL
[11] = 96-well plate, 5×10^5 CFU/mL, 37° C., 10 h
[12] = 10 h cultivation at 37° C., 5×10^5 CFU/mL, two-fold serial dilution

Substance: PRT1374 (GVRQCPNDCSQHGVCQDGVCICWEGYVSEDC; listed as Homo sapiens)
- MIC (E. coli DH5α): 50 µg/mL
- MIC against E. coli BL21 (E. coli BL21; E. coli BL21, 5×10^5 CFU/mL, 10 h cultivation at 37° C.): 12.5 µg/mL
- MIC against P. aeruginosa (Pseudomonas aeruginosa; Pseudomonas aeruginosa, 5×10^5 CFU/mL, 10 h cultivation at 37° C.): 25 µg/mL
- MIC against K. pneumonia (Klebsiella pneumonia; Klebsiella pneumonia, 5×10^5 CFU/mL, 10 h cultivation at 37° C.): 12.5 µg/mL
- MIC against E. cloacae (Enterobacter cloacae; Enterobacter cloacae, 5×10^5 CFU/mL, 10 h cultivation at 37° C.): 25 µg/mL
- MIC against A. hydrophila (Aeromonas hydrophila; Aeromonas hydrophila, 5×10^5 CFU/mL, 10 h cultivation at 37° C.): 12.5 µg/mL
- MIC against C. diversus (Citrobacter diversus; Citrobacter diversus, 5×10^5 CFU/mL, 10 h cultivation at 37° C.): 12.5 µg/mL
- MIC against M. catarrhalis (Moraxella catarrhalis; Moraxella catarrhalis, 5×10^5 CFU/mL, 10 h cultivation at 37° C.): 12.5 µg/mL
- MIC against P. mirabilis (Proteus mirabilis; Proteus mirabilis, 5×10^5 CFU/mL, 10 h cultivation at 37° C.): 12.5 µg/mL
- MIC against P. vulgaris (Proteus vulgaris; Proteus vulgaris, 5×10^5 CFU/mL, 10 h cultivation at 37° C.): 12.5 µg/mL
- MIC against S. marcescens (Serratia marcescens; Serratia marcescens, 5×10^5 CFU/mL, 10 h cultivation at 37° C.): 12.5 µg/mL

Substance: PRT900 (VLAPCAPSPCRNGGECRQSEDYESFSCVCPTGWQGQTCE; listed as Homo sapiens)
- MIC (E. coli DH5α): 12.5 µg/mL
- MIC (E. coli BL21; E. coli BL21, 10 h cultivation at 37° C.): 25 µg/mL
- MIC (Pseudomonas aeruginosa; P. aeruginosa, 10 h cultivation at 37° C.): 12.5 µg/mL
- MIC (Klebsiella pneumonia; K. pneumonia, 10 h cultivation at 37° C.): 12.5 µg/mL
- MIC (Enterobacter cloacae; E. cloacae, 10 h cultivation at 37° C.): 12.5 µg/mL
- MIC (Aeromonas hydrophila; A. hydrophila, 10 h cultivation at 37° C.): 12.5 µg/mL
- MIC (Citrobacter diversus; C. diversus, 10 h cultivation at 37° C.): 12.5 µg/mL
- MIC (Moraxella catarrhalis; M. catarrhalis, 10 h cultivation at 37° C.): 25 µg/mL
- MIC (Proteus mirabilis; P. mirabilis, 10 h cultivation at 37° C.): 12.5 µg/mL
- MIC (Proteus vulgaris; P. vulgaris, 10 h cultivation at 37° C.): 25 µg/mL
- MIC (Serratia marcescens; S. marcescens, 10 h cultivation at 37° C.): 50 µg/mL

Substance: PRT173 (CSSSPCSNGAKCVDLGDAYLCRCQAGFSGRHC; listed as Homo sapiens)
- MIC (E. coli DH5α): 12.5 µg/mL
- MIC (μg/mL) E. coli BL21 (E. coli BL21; [1]): 50 µg/mL
- MIC (μg/mL) P. aeruginosa (Pseudomonas aeruginosa; [2]): 12.5 µg/mL
- MIC (μg/mL) K. pneumonia (Klebsiella pneumonia; [3]): 50 µg/mL
- MIC (μg/mL) E. cloacae (Enterobacter cloacae; [4]): 25 µg/mL
- MIC (μg/mL) A. hydrophila (Aeromonas hydrophila; [5]): 12.5 µg/mL
- MIC (μg/mL) C. diversus (Citrobacter diversus; [6]): 25 µg/mL
- MIC (μg/mL) M. catarrhalis (Moraxella catarrhalis; [7]): 50 µg/mL
- MIC (μg/mL) P. mirabilis (Proteus mirabilis; [8]): 25 µg/mL
- MIC (μg/mL) P. vulgaris (Proteus vulgaris; [9]): 12.5 µg/mL
- MIC (μg/mL) S. marcescens (Serratia marcescens; [10]): 25 µg/mL

Substance: PRT717 (DLNECLVFGTCSHQCINVEGSYKCVCDQNFQERNNTCI; listed as Homo sapiens)
- MIC (E. coli DH5α): 50 µg/mL
- MIC E. coli BL21 (E. coli BL21; [11]): 12.5 µg/mL
- MIC P. aeruginosa (Pseudomonas aeruginosa; [11]): 50 µg/mL
- MIC K. pneumonia (Klebsiella pneumonia; [11]): 12.5 µg/mL
- MIC E. cloacae (Enterobacter cloacae; [11]): 50 µg/mL
- MIC A. hydrophila (Aeromonas hydrophila; [11]): 12.5 µg/mL
- MIC C. diversus (Citrobacter diversus; [11]): 25 µg/mL
- MIC M. catarrhalis (Moraxella catarrhalis; [11]): 50 µg/mL
- MIC P. mirabilis (Proteus mirabilis; [11]): 25 µg/mL
- MIC P. vulgaris (Proteus vulgaris; [11]): 12.5 µg/mL
- MIC S. marcescens (Serratia marcescens; [11]): 50 µg/mL

Substance: PRT1074 (QYRQCSGYCENFGTCQMAADGSRQCRCTAYFEGSRCE; listed as Homo sapiens)
- MIC (E. coli DH5α): 50 µg/mL
- MIC E. coli BL21 (E. coli BL21; [12]): 12.5 µg/mL
- MIC P. aeruginosa (Pseudomonas aeruginosa; [12]): 50 µg/mL
- MIC K. pneumonia (Klebsiella pneumonia; [12]): 12.5 µg/mL
- MIC E. cloacae (Enterobacter cloacae; [12]): 12.5 µg/mL
- MIC A. hydrophila (Aeromonas hydrophila; [12]): 12.5 µg/mL
- MIC C. diversus (Citrobacter diversus; [12]): 12.5 µg/mL
- MIC M. catarrhalis (Moraxella catarrhalis; [12]): 12.5 µg/mL
- MIC P. mirabilis (Proteus mirabilis; [12]): 12.5 µg/mL
- MIC P. vulgaris (Proteus vulgaris; [12]): 12.5 µg/mL
- MIC S. marcescens (Serratia marcescens; [12]): 12.5 µg/mL

Substance: PRT889 (DVNECVSNPCQNDATCLDQIGEFQCICMPGYEGVHCE; listed as Homo sapiens)
- MIC (E. coli DH5α): 25 µg/mL
- MIC (μg/mL) E. coli BL21 (E. coli BL21; [1]): 12.5 µg/mL
- MIC (μg/mL) P. aeruginosa (Pseudomonas aeruginosa; [2]): 25 µg/mL
- MIC (μg/mL) K. pneumonia (Klebsiella pneumonia; [3]): 12.5 µg/mL
- MIC (μg/mL) E. cloacae (Enterobacter cloacae; [4]): 12.5 µg/mL
- MIC (μg/mL) A. hydrophila (Aeromonas hydrophila; [5]): 12.5 µg/mL
- MIC (μg/mL) C. diversus (Citrobacter diversus; [6]): 12.5 µg/mL
- MIC (μg/mL) M. catarrhalis (Moraxella catarrhalis; [7]): 12.5 µg/mL
- MIC (μg/mL) P. mirabilis (Proteus mirabilis; [8]): 25 µg/mL
- MIC (μg/mL) P. vulgaris (Proteus vulgaris; [9]): 12.5 µg/mL
- MIC (μg/mL) S. marcescens (Serratia marcescens; [10]): 25 µg/mL

Substance: PRT1053 (QLVSCPRNVSECSHDCVLTSEGPLCFCPEGSVLERDGKTCS; listed as Homo sapiens)
- MIC (E. coli DH5α): 12.5 µg/mL
- MIC E. coli BL21 (E. coli BL21; [12]): 12.5 µg/mL
- MIC P. aeruginosa (Pseudomonas aeruginosa; [12]): 12.5 µg/mL
- MIC K. pneumonia (Klebsiella pneumonia; [12]): 50 µg/mL
- MIC E. cloacae (Enterobacter cloacae; [12]): 12.5 µg/mL
- MIC A. hydrophila (Aeromonas hydrophila; [12]): 50 µg/mL
- MIC C. diversus (Citrobacter diversus; [12]): 12.5 µg/mL
- MIC M. catarrhalis (Moraxella catarrhalis; [12]): 12.5 µg/mL
- MIC P. mirabilis (Proteus mirabilis; [12]): 100 µg/mL
- MIC P. vulgaris (Proteus vulgaris; [12]): 12.5 µg/mL
- MIC S. marcescens (Serratia marcescens; [12]): 100 µg/mL
